Experiments:
Assay type in all cases: cell-based, human
[1] = system: MR1T cell clones; assay: MR1T cell clone stimulation by A375-MR1 cells in the presence of 6-FP or Ac-6-FP; conditions: for MR1T cell stimulation in the presence of the ligand: A375-MR1 target cells; for inhibition of activation of MR1T cells: target A375 cells expressing mutant MR1 (A375-MR1 K34A)
Experimental: (§1) T cell activation assays. MR1-restricted T cells (5×10^4/well unless otherwise indicated) were co-cultured with indicated target cells (5×10^4/well) in 200 μl total volume in duplicates or triplicates. T cells were cultured with indicated APCs for 24 h. […] E. coli lysate was prepared from the DH5α strain (Invitrogen) grown in LB medium and collected during exponential growth. Bacterial cells were washed twice in PBS and then lysed by sonication. After centrifugation (15,000 g for 15 min), the supernatant was collected, dried, and stored at −70° C. APCs were pulsed for 4 h with E. coli lysate equivalent to 10^8 CFU/ml (unless otherwise indicated) before addition of T cells. In some experiments, APCs were pre-incubated with 6-FP or Ac-6-FP (Schircks Laboratories) for 4 h before co-culture with T cells. In control experiments with TCR γδ cells expressing TCR Vγ9 and Vδ2 chains, the APCs were first treated for 6 h with zoledronate (10 μg/ml) prior to T cell addition. Activation experiments with plate-bound recombinant human β2m-MR1-Fc were performed by coating β2m-MR1-Fc onto 96 well plates (4 μg/ml) and loading with cartridge-purified cell lysates for 4 h at 37° C. before washing twice and adding T cells. Supernatants were collected after 24 h and IFN-γ or GM-CSF were assessed by ELISA. Multiple cytokines and chemokines in cell culture supernatants were analyzed using the Milliplex MAP human cytokine/chemokine magnetic bead panel—Premixed 41 plex (HCYTMAG-60K-PX41; Merck Millipore) according to the manufacturer's instructions. Samples were acquired on a Flexmap 3D system (Merck Millipore) and Milliplex analyst software was used to determine mean fluorescence intensity and analyte concentration.

[2] = system: control MAIT cells; assay: E. coli stimulation of control MAIT cells in the presence of 6-FP or Ac-6-FP; conditions: for E. coli stimulation of control MAIT cells in the presence of the ligand: A375-MR1 target cells; for inhibition of activation of MAIT cells: target A375 cells expressing mutant MR1 (A375-MR1 K34A)
Experimental: as §1

[3] = system: TCR Vγ9Vδ2 clone G2B9; assay: Control TCR γδ cell response to zoledronate-treated APCs in the presence of 6-FP or Ac-6-FP
Experimental: as §1, with “In control experiments with TCR γδ cells expressing TCR Vγ9 and Vδ2 chains, the APCs were first treated for 6 h with zoledronate (10 μg/ml) prior to T cell addition. Activation experiments with plate-bound recombinant human β2m-MR1-Fc were performed by coating β2m-MR1-Fc onto 96 well plates (4 μg/ml) and loading with cartridge-purified cell lysates for 4 h at 37° C. before washing twice and adding T cells.” left out

[4] = system: MAIT cell clone SMC3; assay: Stimulation of control MAIT cell clone by RL-6,7-diMe-loaded THP-1 cells
Experimental: T cell activation assays. MR1-restricted T cells (5×10^4/well unless otherwise indicated) were co-cultured with indicated target cells (5×10^4/well) in 200 μl total volume in duplicates or triplicates. T cells were cultured with indicated APCs for 24 h. In some experiments, anti-MR1 mAbs (clone 26.5) or mouse IgG2a isotype control mAbs (both at 30 μg/ml) were added and incubated for 30 min prior to the addition of T cells. E. coli lysate was prepared from the DH5α strain (Invitrogen) grown in LB medium and collected during exponential growth. Bacterial cells were washed twice in PBS and then lysed by sonication. After centrifugation (15,000 g for 15 min), the supernatant was collected, dried, and stored at −70° C. APCs were pulsed for 4 h with E. coli lysate equivalent to 10^8 CFU/ml (unless otherwise indicated) before addition of T cells. […] Supernatants were collected after 24 h and IFN-γ or GM-CSF were assessed by ELISA. Multiple cytokines and chemokines in cell culture supernatants were analyzed using the Milliplex MAP human cytokine/chemokine magnetic bead panel—Premixed 41 plex (HCYTMAG-60K-PX41; Merck Millipore) according to the manufacturer's instructions. Samples were acquired on a Flexmap 3D system (Merck Millipore) and Milliplex analyst software was used to determine mean fluorescence intensity and analyte concentration.

| SMILES | MR1T cell stimulation in the presence of the ligand [1] | inhibition of activation of MR1T cells [1] | E. coli stimulation of control MAIT cells in the presence of the ligand [2] | inhibition of activation of MAIT cells [2] | control TCR γδ cell responses to cognate antigen presented by the same APCs (compound toxicity) [3] | stimulation of control MAIT cell clone [4] |
| --- | --- | --- | --- | --- | --- | --- |
| Nc1nc2ncc(C=O)nc2c(=O)[nH]1 [Clone 6-FP, 6-formyl pterin] | impaired | failed to inhibit | impaired | failed to inhibit | did not disrupt |  |
| Cc1nc2c(=O)[nH]c(=O)nc-2n(C[C@H](O)[C@H](O)[C@H](O)CO)c1C [RL-6,7-diMe, 6,7-dimethyl-8-D-ribityllumazine] |  |  |  |  |  | stimulated in MR1-dependent manner |
| CC(=O)Nc1nc2ncc(C=O)nc2c(=O)[nH]1 [Ac-6-FP, acetyl-6-formyl pterin] | impaired | failed to inhibit | impaired | failed to inhibit | did not disrupt |  |

Source: US20220339271A1, “MR1 RESTRICTED T CELL RECEPTORS FOR CANCER IMMUNOTHERAPY” (Universität Basel, priority 2018, published 2022)
